From ChEMBL document CHEMBL1667853, “Design and synthesis of potent Gram-negative specific LpxC inhibitors” (Bioorg Med Chem Lett, 2011)
In brackets after ≈: the same amount, converted by molar mass.

How the values were obtained:
[1] = Inhibition of Aquifex aeolicus LpxC
Pseudomonas aeruginosa [2] = assay: Antimicrobial activity against wild type Pseudomonas aeruginosa by broth dilution assay; format: functional
Escherichia coli [3] = assay: Antimicrobial activity against ESBL producing Escherichia coli by broth dilution assay; format: functional
Escherichia coli [4] = assay: Antimicrobial activity against Escherichia coli HS294 by broth dilution assay; format: functional
Acinetobacter baumannii = assay: Antimicrobial activity against wild type Acinetobacter baumannii by broth dilution assay; format: functional
Enterobacter cloacae = assay: Antimicrobial activity against ESBL producing Enterobacter cloacae by broth dilution assay; format: functional
Escherichia coli [5] = assay: Antimicrobial activity against multidrug-resistant Escherichia coli by broth dilution assay; format: functional
[6] = tested on: Stenotrophomonas maltophilia; assay: Antimicrobial activity against wild type Stenotrophomonas maltophilia by broth dilution assay; format: functional
Pseudomonas aeruginosa [7] = assay: Antimicrobial activity against multidrug-resistant Pseudomonas aeruginosa by broth dilution assay; format: functional
[8] = tested on: Acinetobacter calcoaceticus; assay: Antimicrobial activity against wild type Acinetobacter calcoaceticus by broth dilution assay; format: functional
Escherichia coli [9] = assay: Antimicrobial activity against wild type Escherichia coli by broth dilution assay; format: functional
Klebsiella pneumoniae [10] = assay: Antimicrobial activity against ESBL producing Klebsiella pneumoniae by broth dilution assay; format: functional
Klebsiella aerogenes = assay: Antimicrobial activity against wild type Enterobacter aerogenes by broth dilution assay; format: functional
Serratia marcescens = assay: Antimicrobial activity against wild type Serratia marcescens by broth dilution assay; format: functional
Escherichia coli [11] = assay: Antimicrobial activity against Escherichia coli ATCC 25922 by broth dilution assay; format: functional
Klebsiella pneumoniae [12] = assay: Antimicrobial activity against wild type Klebsiella pneumoniae by broth dilution assay; format: functional
Proteus vulgaris = assay: Antimicrobial activity against wild type Proteus vulgaris by broth dilution assay; format: functional
[13] = biological target: T1, UDP-3-O-acyl-N-acetylglucosamine deacetylase (Escherichia coli K-12, UniProt P0A725); assay: Inhibition of Escherichia coli LpxC
T1 sequence (P0A725 whole entry): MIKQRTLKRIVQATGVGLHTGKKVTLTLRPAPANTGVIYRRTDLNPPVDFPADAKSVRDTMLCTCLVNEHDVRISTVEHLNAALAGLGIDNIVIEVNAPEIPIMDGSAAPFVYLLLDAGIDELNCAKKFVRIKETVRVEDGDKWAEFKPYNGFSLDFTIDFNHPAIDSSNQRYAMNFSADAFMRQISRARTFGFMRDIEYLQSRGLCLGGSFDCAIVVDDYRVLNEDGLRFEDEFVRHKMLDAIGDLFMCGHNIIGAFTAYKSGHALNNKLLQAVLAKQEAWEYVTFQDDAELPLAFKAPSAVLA

Question: With `CCCCCCCOc1cccc(C(=O)O)c1` as the compound, how does the Kd [1] read?
Answer: Its Kd is 2000 nM.

Question: Which results are given for `C[C@@H](O)[C@@H](NC(=O)c1ccc(C#Cc2ccccc2)cc1)C(=O)NO`?
Answer: MIC (Pseudomonas aeruginosa [2]): 10 µg/mL (≈ 29.6 µM); MIC (Escherichia coli [3]): 0.313 µg/mL (≈ 0.925 µM); MIC (Escherichia coli [4]): 0.02 µg/mL (≈ 0.0591 µM); MIC (Acinetobacter baumannii): > 20 µg/mL; MIC (Enterobacter cloacae): 0.31 µg/mL (≈ 0.916 µM); MIC (Escherichia coli [5]): 0.63 µg/mL (≈ 1.86 µM); MIC [6]: 5 µg/mL (≈ 14.8 µM); MIC (Pseudomonas aeruginosa [7]): 0.63 µg/mL (≈ 1.86 µM); MIC [8]: 1.25 µg/mL (≈ 3.69 µM); MIC (Escherichia coli [9]): 0.16 µg/mL (≈ 0.473 µM); MIC (Klebsiella pneumoniae [10]): 0.63 µg/mL (≈ 1.86 µM); MIC (Klebsiella aerogenes): 2.5 µg/mL (≈ 7.39 µM); MIC (Serratia marcescens): 1.25 µg/mL (≈ 3.69 µM); MIC (Escherichia coli [11]): 0.08 µg/mL (≈ 0.236 µM); MIC (Klebsiella pneumoniae [12]): 1.25 µg/mL (≈ 3.69 µM); MIC (Proteus vulgaris): 1.25 µg/mL (≈ 3.69 µM)

Question: With `C[C@@H](O)[C@@H](NC(=O)N1CCC(c2ccc(-c3ccccc3)cc2)CC1)C(=O)NO` as the compound, how does the MIC (Pseudomonas aeruginosa [2]) read?
Answer: Its MIC is 3.13 µg/mL (≈ 7.87 µM).

Question: What about the MIC (Escherichia coli [3]) of the same compound?
Answer: Its MIC is 3.13 µg/mL (≈ 7.87 µM).

Question: What about the IC50 [13] of the same compound?
Answer: Its IC50 is 13.8 nM.

Question: What about the MIC (Escherichia coli [4]) of the same compound?
Answer: Its MIC is 0.8 µg/mL (≈ 2.01 µM).

Question: What about the MIC (Acinetobacter baumannii) of the same compound?
Answer: Its MIC is > 100 µg/mL.

Question: What about the MIC (Enterobacter cloacae) of the same compound?
Answer: Its MIC is 3.13 µg/mL (≈ 7.87 µM).

Question: And the MIC (Escherichia coli [5])?
Answer: Its MIC is 3.13 µg/mL (≈ 7.87 µM).

Question: What about the MIC [6] of the same compound?
Answer: Its MIC is > 100 µg/mL.

Question: And the MIC (Pseudomonas aeruginosa [7])?
Answer: The MIC was > 12.5 µg/mL.

Question: What about the MIC [8] of the same compound?
Answer: Its MIC is > 100 µg/mL.

Question: What about the MIC (Escherichia coli [9]) of the same compound?
Answer: The MIC was 1.56 µg/mL (≈ 3.92 µM).

Question: And the MIC (Klebsiella pneumoniae [10])?
Answer: Its MIC is 12.5 µg/mL (≈ 31.4 µM).

Question: What about the MIC (Klebsiella aerogenes) of the same compound?
Answer: Its MIC is > 100 µg/mL.

Question: And the MIC (Serratia marcescens)?
Answer: Its MIC is 6.25 µg/mL (≈ 15.7 µM).

Question: What about the MIC (Escherichia coli [11]) of the same compound?
Answer: The MIC was 6.25 µg/mL (≈ 15.7 µM).

Question: And the MIC (Klebsiella pneumoniae [12])?
Answer: Its MIC is > 100 µg/mL.

Question: And the MIC (Proteus vulgaris)?
Answer: The MIC was 3.13 µg/mL (≈ 7.87 µM).

Question: For `CC(C)(O)[C@@H](NC(=O)N1CCN(c2ccc(C#Cc3ccccc3)cc2)CC1)C(=O)NO`, which MIC (Pseudomonas aeruginosa [2]) is on record?
Answer: Its MIC is > 50 µg/mL.

Question: What about the MIC (Escherichia coli [3]) of the same compound?
Answer: The MIC was 1.56 µg/mL (≈ 3.57 µM).

Question: What about the IC50 [13] of the same compound?
Answer: The IC50 was 0.3 nM.

Question: And the MIC (Escherichia coli [4])?
Answer: The MIC was 0.1 µg/mL (≈ 0.229 µM).

Question: What about the MIC (Acinetobacter baumannii) of the same compound?
Answer: The MIC was > 50 µg/mL.

Question: And the MIC (Enterobacter cloacae)?
Answer: The MIC was 6.25 µg/mL (≈ 14.3 µM).

Question: What about the MIC (Escherichia coli [5]) of the same compound?
Answer: The MIC was 1.56 µg/mL (≈ 3.57 µM).

Question: What about the MIC [6] of the same compound?
Answer: Its MIC is 25 µg/mL (≈ 57.3 µM).

Question: And the MIC (Pseudomonas aeruginosa [7])?
Answer: Its MIC is 6.25 µg/mL (≈ 14.3 µM).

Question: And the MIC [8]?
Answer: Its MIC is 25 µg/mL (≈ 57.3 µM).

Question: What about the MIC (Escherichia coli [9]) of the same compound?
Answer: The MIC was 0.8 µg/mL (≈ 1.83 µM).

Question: And the MIC (Klebsiella pneumoniae [10])?
Answer: The MIC was 6.25 µg/mL (≈ 14.3 µM).

Question: What about the MIC (Klebsiella aerogenes) of the same compound?
Answer: The MIC was 12.5 µg/mL (≈ 28.6 µM).

Question: And the MIC (Serratia marcescens)?
Answer: The MIC was 6.25 µg/mL (≈ 14.3 µM).

Question: What about the MIC (Escherichia coli [11]) of the same compound?
Answer: Its MIC is 0.8 µg/mL (≈ 1.83 µM).

Question: What about the MIC (Klebsiella pneumoniae [12]) of the same compound?
Answer: The MIC was 12.5 µg/mL (≈ 28.6 µM).

Question: What about the MIC (Proteus vulgaris) of the same compound?
Answer: Its MIC is 3.13 µg/mL (≈ 7.17 µM).

Question: With `C[C@@H](N)[C@@H](NC(=O)N1CCN(c2ccc(C#Cc3ccccc3)cc2)CC1)C(=O)NO` as the compound, how does the MIC (Pseudomonas aeruginosa [2]) read?
Answer: Its MIC is 12.5 µg/mL (≈ 29.7 µM).

Question: What about the MIC (Escherichia coli [3]) of the same compound?
Answer: The MIC was 1.56 µg/mL (≈ 3.7 µM).

Question: And the IC50 [13]?
Answer: The IC50 was 0.6 nM.

Question: And the MIC (Escherichia coli [4])?
Answer: Its MIC is 0.4 µg/mL (≈ 0.949 µM).

Question: And the MIC (Acinetobacter baumannii)?
Answer: Its MIC is 25 µg/mL (≈ 59.3 µM).

Question: And the MIC (Enterobacter cloacae)?
Answer: The MIC was 3.13 µg/mL (≈ 7.43 µM).

Question: What about the MIC (Escherichia coli [5]) of the same compound?
Answer: Its MIC is 3.13 µg/mL (≈ 7.43 µM).

Question: And the MIC [6]?
Answer: The MIC was > 50 µg/mL.

Question: What about the MIC (Pseudomonas aeruginosa [7]) of the same compound?
Answer: Its MIC is 3.13 µg/mL (≈ 7.43 µM).

Question: And the MIC [8]?
Answer: Its MIC is 25 µg/mL (≈ 59.3 µM).

Question: And the MIC (Escherichia coli [9])?
Answer: The MIC was 1.56 µg/mL (≈ 3.7 µM).

Question: And the MIC (Klebsiella pneumoniae [10])?
Answer: Its MIC is 12.5 µg/mL (≈ 29.7 µM).

Question: What about the MIC (Klebsiella aerogenes) of the same compound?
Answer: Its MIC is 25 µg/mL (≈ 59.3 µM).

Question: What about the MIC (Serratia marcescens) of the same compound?
Answer: The MIC was 12.5 µg/mL (≈ 29.7 µM).

Question: And the MIC (Escherichia coli [11])?
Answer: Its MIC is 1.56 µg/mL (≈ 3.7 µM).

Question: What about the MIC (Klebsiella pneumoniae [12]) of the same compound?
Answer: Its MIC is 25 µg/mL (≈ 59.3 µM).

Question: And the MIC (Proteus vulgaris)?
Answer: Its MIC is 6.25 µg/mL (≈ 14.8 µM).

Question: Which MIC (Pseudomonas aeruginosa [2]) does the source give for `CC1(C)S[C@@H]2[C@H](NC(=O)[C@H](N)c3ccccc3)C(=O)N2[C@H]1C(=O)O` [AMPICILLIN] here?
Answer: Its MIC is 4 µg/mL (≈ 11.4 µM).

Question: And the MIC (Escherichia coli [3])?
Answer: Its MIC is > 32 µg/mL.

Question: And the MIC (Enterobacter cloacae)?
Answer: Its MIC is > 32 µg/mL.

Question: What about the MIC (Escherichia coli [5]) of the same compound?
Answer: The MIC was > 8 µg/mL.

Question: What about the MIC [6] of the same compound?
Answer: Its MIC is > 32 µg/mL.

Question: What about the MIC (Pseudomonas aeruginosa [7]) of the same compound?
Answer: The MIC was > 256 µg/mL.

Question: And the MIC (Escherichia coli [9])?
Answer: Its MIC is 4 µg/mL (≈ 11.4 µM).

Question: And the MIC (Klebsiella pneumoniae [10])?
Answer: Its MIC is > 32 µg/mL.

Question: What about the MIC (Klebsiella pneumoniae [12]) of the same compound?
Answer: The MIC was > 32 µg/mL.
